Reference: paper PMC4432651, “Dynamic interplay between catalytic and lectin domains of GalNAc-transferases modulates protein O-glycosylation” (Nature Communications, 2015)
Where a SMILES comes first, the peptide text is derived from it. The star is where a group is joined. αGalNAc = CC(=O)N[C@@H]1[C@@H](O)[C@@H](O)[C@@H](CO)O[C@@H]1*

Assays:
GalNAc-T2 [1] = target: T1, GalNAc-T2 (Homo sapiens, UniProt Q10471); assay: Tryptophan fluorescence spectroscopy, dissociation constants of GalNAc-T2 against peptides; assay type: binding; conditions: Kd in the absence of UDP/Mn+2 compared with presence of the nucleotide
T1 construct: made in house
T1 sequence (Q10471 75-571 limits assumed): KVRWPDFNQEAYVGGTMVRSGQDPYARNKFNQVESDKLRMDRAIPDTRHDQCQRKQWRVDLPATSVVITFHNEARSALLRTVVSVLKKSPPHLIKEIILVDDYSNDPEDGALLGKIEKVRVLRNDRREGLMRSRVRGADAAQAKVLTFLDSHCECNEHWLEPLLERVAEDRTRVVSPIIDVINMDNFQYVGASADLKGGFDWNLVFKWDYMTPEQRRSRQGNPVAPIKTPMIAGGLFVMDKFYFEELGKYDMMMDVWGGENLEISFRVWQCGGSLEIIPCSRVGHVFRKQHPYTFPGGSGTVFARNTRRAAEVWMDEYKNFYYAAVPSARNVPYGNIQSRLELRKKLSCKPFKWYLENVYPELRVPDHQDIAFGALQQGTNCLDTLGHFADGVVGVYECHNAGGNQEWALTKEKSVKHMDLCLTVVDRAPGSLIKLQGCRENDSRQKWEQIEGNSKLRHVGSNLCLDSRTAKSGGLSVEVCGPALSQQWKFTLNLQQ
Description: All experiments were carried out in a Cary Eclipse spectrofluorometer (Varian) at 25 °C with GalNAc-T2 at 1 μM, and concentrations of peptides varying from 1 to 500 μM in 25 mM Tris, 150 mM NaCl, pH 7.5. The same experiments were also performed in the same buffer but containing 400 μM UDP and 1 mM MnCl2. Fluorescence emission spectra were recorded in the 300–400 nm range with an excitation wavelength of 280 nm, with slit width of 5 nm. The data analysis was performed in Prism (GraphPad software) considering a model with a single binding site (see equation (1), where F0 is the intrinsic fluorescence of the enzyme in the absence of quencher (Q), F1 is the observed fluorescence at a given quencher concentration, fa is the fractional degree of fluorescence and Kd is the dissociation constant.

GalNAc-T2 [2] = target: T1, GalNAc-T2; assay: SAXS with Ensemble Optimization Method: GalNAc-T2 conformations/oligomers with ligands; conditions: GalNAc-T2 5 mg/ml, 25 mM TRIS pH 7.5, 10 mM MnCl2, 10 °C; for Dmax: maximum intramolecular distance, GNOM; for all read-outs here: values in Å
Description: SAXS measurements were performed at the European Molecular Biology Laboratory on the storage ring PETRA-III (DESY-Hamburg) on the P12 beamline equipped with a robotic sample changer and a PILATUS-2M. The analysis of the SAXS data was performed by using the EOM[31]. Additional details are in Supplementary Methods. […]
Small-angle X-ray scattering (SAXS) and data analysis
All experiments were performed in a buffer consisting of 25 mM TRIS pH 7.5, 10 mM MnCl2. The first set of experiments contained three different protein concentrations: 10 mg/ml (180 µM), 5 mg/ml (90 µM), 2.5 mg/ml (45 µM) and 1 […]
mg/ml (18 µM). The protein was measured alone and in the presence of ten times molar excess of UDP, UDP-GalNAc, UDP-EA2 peptide, MUC5AC-13, UDP-MUC5AC-13, MUC5AC, and UDP-MUC5AC. The second set of experiments was carried out with the protein concentration fixed at 5 mg/ml, and increasing concentrations of UDP (450 µM, 900 µM, 1.8 mM, 4.5 mM and 9 mM). The concentration of MUC5AC-13 was also changed as follows: 1 mM, 5 mM and 7.5 […]
Synchrotron SAXS measurements were performed at the European Molecular
Biology Laboratory (EMBL) on the storage ring PETRA-III (DESY-Hamburg) on the P12 beamline equipped with a robotic sample changer and a PILATUS-2M. The sample-detector distance was 3.1 m. The scattering intensity, I(s), was recorded at 10 °C in a momentum transfer range of 0.007<s<0.444 Å -1, where s = (4πsinθ )/λ , 2θ is the scattering angle, and λ = 1.24 Å is the X-ray wavelength. Twenty consecutive 0.05 second measurements were performed for protein samples and buffers to monitor for radiation damage that were subsequently averaged (no systematic radiation effects were observed). Buffer scattering profiles were subtracted from the sample ones using standard procedures 8. The values of the forward scattering, I(0), and radii of gyration, Rg, were calculated from the experimental SAXS patterns using Guinier’s approximation (Supplementary Fig. 4 and 5), I(s) = I(0)exp(-s2Rg2/3), which is valid in the range sRg < 1.3.
Structural analysis of the SAXS data was performed using the Ensemble Optimization Method (EOM)9. A pool of 10,000 monomeric structures of GalNac-T2 was constructed with the program RanCh9 by connecting three-dimensional structures of the catalytic and the lectin domains, extracted from the crystallographic structure 2FFU, with a flexible linker of 12 residues with random coil conformations. To […]
properly describe the data, these monomeric ensembles were enriched with 100 equivalent curves corresponding to one dimeric arrangement. As we tested three dimers, we built three different ensembles with the same 10,000 monomeric conformations and 100 copies of each one of the dimers. The three different dimers used for SAXS are shown in Supplementary Fig. 3c and correspond to three different crystal structures obtained under different conditions.
The scattering profiles of all members of the pool were computed with the program CRYSOL using standard parameters10. The pool of structures/profiles was submitted to the genetic algorithm (GA) with the aim to select a subensemble of 50 structures/curves with the capacity to collectively describe the experimental SAXS […]
was repeated 200 times starting from different randomly selected subensembles, and the resulting solutions were analysed together. The same pool was used to describe all the measured data. Results were quantitatively analysed by displaying the Rg distributions of the selected ensembles and the relative population of monomeric and dimeric species.
Three different dimeric arrangements were introduced individually in the pool. In all three cases the dimers display similar contacts between the lectin domains and the lectin domain of one monomer with the catalytic domain of a second monomer (Supplementary Fig. 3c). We can distinguish the crystallographic dimers by the buried area parameter inferred from the PISA server. The dimers present in the crystal structure of GalNAc-T2-UDP complex (PDB entry 2FFV) are the most compact ones […]

GalNAc-T2 [3] = target: T1, GalNAc-T2; assay: Time-lapse AFM of single GalNAc-T2 molecules with ligands; conditions: in the presence of Mn+2; GalNAc-T2 2.0 nM on mica, UDP, UDP-GalNAc and MnCl2 20.0 nM, PBS pH 7.4, 20 °C
Description: AFM measurements were performed using a MultiMode 8 AFM system (Bruker). […] Additional details are in Supplementary Methods. […]
simulations were performed with the acceptor amino acid – UDPGalNAc distance and the RMSD of the Cα peptide carbon atoms as collective variables.
The values of the height and width of the Gaussian-like biasing potential were selected as 1.0 kcal·mol -1 and 0.25 Å, respectively. A temperature window of ΔT = 25000 K for the well-tempered algorithm was used together with a deposition time of 1 ps. The simulation was continued until the system completely explored the free energy landscape several times which, in terms of the simulation time, corresponds to approximately 100 ns for each metadynamics run.
Atomic Force Microscopy Imaging
In Tapping Mode image operation the cantilever driven by a piezoelectric actuator vibrates near its resonance frequency. Upon approaching the sample, the tip briefly touches the surface at the bottom of each swing, resulting in a decrease in oscillation amplitude. […]
AFM scanning requires the sample be immobilized on a nanoflat surface not to be swept away. […] The concentration of the protein incubated on the mica sheets was suitable to get isolated features that could be analyzed individually. […]
GalNAc-T2 presents a net positive charge at the working pH conditions due to its theoretical isoelectric point of 8.3. The immobilization of enzymes on mica was previously evaluated observing clearly they preserve the enzymatic activity5.
To determine how the ligands affect the conformational dynamics of GalNAc-T2, the enzyme was also incubated with ligands for 10 min under mild stirring at room temperature. […] AFM images were further analyzed by using the WSxM software6. […] At least 10 images of 10 different areas of 500 nm2 were analyzed for every sample and environment. Furthermore, each feature or associate was analyzed in detail with the zoom function of the WSxM program, performed without losing image information and or the discarding of artifacts. […]

GalNAc-T2 [4] = target: T1, GalNAc-T2; assay: X-ray crystal structures of GalNAc-T2 complexes; assay type: binding; conditions: co-crystallization with UDP and Mn+2; flexible loop conformation
Description: In all cases, crystals were grown by hanging drop vapour diffusion at 18 °C. […] The protein solution consisting of 3.5 mg ml^−1 of GalNAcT-2, 5 mM UDP, 5 mM MnCl2 and 6 mM MUC5AC-13 in the same buffer described above was mixed with the precipitant solution containing 1.6 M ammonium sulfate, 100 mM sodium chloride and 100 mM HEPES (pH 7). The crystals were cryoprotected in saturated lithium sulfate and frozen in a nitrogen gas stream cooled to 100 K.
All data were processed and scaled using the XDS package[34] and CCP4 software. The crystal structures were solved by molecular replacement with Phaser[35] and using the PDB entry 4D0T as the template. Initial phases were further improved by cycles of manual model building in Coot[36] and refinement with REFMAC5 (ref. [37]). The AUs of the tetragonal crystals contain 1 molecule of GalNAc-T2 (Fig. 1). Coordinates and structure factors have been deposited in the Worldwide Protein Data Bank (wwPDB, and see Table 1 for the pdb codes).

[5] = ligand molar ratio GalNAc-T2:ligand 1:10

| SMILES | Kd in the absence vs presence of UDP/Mn+2 (GalNAc-T2 [1]) | Rg from p(r) (GNOM) (GalNAc-T2 [2]; ligand molar ratio 1:10) | Dmax (GalNAc-T2 [2]; ligand molar ratio 1:10) | Rg (Guinier) (GalNAc-T2 [2]; [5]) | Rg (Guinier) (GalNAc-T2 [2]; peptide + UDP (1:10)) | Rg from p(r) (GNOM) (GalNAc-T2 [2]; peptide + UDP (1:10)) | Dmax (GalNAc-T2 [2]; peptide + UDP (1:10)) | conformational states of GalNAc-T2 observed (GalNAc-T2 [3]) | form of GalNAc-T2 bound in crystal (GalNAc-T2 [4]) |
| --- | --- | --- | --- | --- | --- | --- | --- | --- | --- |
| CC(=O)NCC(=O)N[C@H](C(=O)N[C@H](C(=O)N1CCC[C@H]1C(=O)N[C@@H](CO)C(=O)N1CCC[C@H]1C(=O)N[C@H](C(=O)N1CCC[C@H]1C(=O)N[C@H](C(=O)N[C@H](C(=O)N[C@@H](CO)C(=O)N[C@H](C(=O)N[C@H](C(=O)N[C@@H](CO)C(=O)N[C@@H](C)C(N)=O)[C@@H](C)O)[C@@H](C)O)[C@@H](C)O)[C@@H](C)O)C(C)C)[C@@H](C)O)[C@@H](C)O [MUC5AC] (Ac-GTTPSPVPTTSTTSA-NH2; N-terminus assumed) | fourfold better | 33.4 Å | 120 Å | 32.3±0.3 Å | 32.0±0.2 Å | 33.3 Å | 120 Å |  |  |
| CC(=O)N[C@H]1[C@@H](OP(=O)(O)OP(=O)(O)OC[C@H]2O[C@@H](n3ccc(=O)[nH]c3=O)[C@H](O)[C@@H]2O)O[C@H](CO)[C@H](O)[C@@H]1O [UDP-GalNAc, uridine diphosphate N-acetylgalactosamine, reference compound] |  | 34.6 Å | 124 Å | 34.7±0.4 Å |  |  |  | either the very compact or the compact structure |  |
| CC(=O)N[C@H]1[C@@H](O[C@H](C)[C@H](NC(=O)[C@@H](NC(=O)[C@H](CO)NC(=O)[C@@H](NC(=O)[C@@H](NC(=O)[C@@H]2CCCN2C(=O)[C@@H](NC(=O)[C@@H]2CCCN2C(=O)[C@H](CO)NC(=O)[C@@H]2CCCN2C(=O)[C@@H](NC(=O)[C@@H](NC(=O)CN)[C@@H](C)O)[C@@H](C)O[C@H]2O[C@H](CO)[C@H](O)[C@H](O)[C@H]2NC(C)=O)C(C)C)[C@@H](C)O)[C@@H](C)O)[C@@H](C)O)C(=O)N[C@@H](CO)C(=O)N[C@@H](C)C(N)=O)O[C@H](CO)[C@H](O)[C@@H]1O [MUC5AC-3-13] (H-GTT(αGalNAc)PSPVPTTSTT(αGalNAc)SA-NH2; N-terminus assumed) |  |  |  |  |  |  |  |  | bound to the inactive form of GalNAc-T2 |
